Measurements: article PMC11984924, “Dipeptidic Phosphonates: Potent Inhibitors of Pseudomonas aeruginosa Elastase B Showing Efficacy in a Murine Keratitis Model” (Advanced Science, 2025)
≈ marks a conversion by molar mass, not a printed value.

Experiments:
[1] = system: P. aeruginosa strain PA54; assay: MIC against strain PA54; assay type: cell-based; conditions: Pseudomonas aeruginosa, read-out: minimum inhibitory concentration (MIC)
Experimental: The analysis of fold change and copy numbers was conducted through Microsoft Excel, and the data were graphically represented using GraphPad Prism 9.
Table S17: Primers and probes applied in this study (designs were carried out using Geneious Prime bioinformatics […]
Gene Forward primer Reverse Primer Probe Description […]
lasB GAACA CAG CCAA aeruginosa […]
GACTTC CCTG CCGA sigma factor RpoS […]
rho AAC GTTG TCATCGG termination factor
(§1) Animals: The animal experiments were approved by Saarland University’s Animal Welfare Committee (Application number: 17/2021) and conducted in accordance with German and European recommendations and guidelines for the ethical use of animals. The laboratory animals were all C57BL/6N female eight to eleven months old mice. Keeping in specific pathogen-free conditions was provided. Unlimited access to water and show was secured.
(§2) Temperature was closely maintained around 22 °C and relative air humidity around 50%. Light and darkness alternated at twelve-hour intervals. All laboratory animals were purchased from Charles River GmbH, Sulzfeld, Germany.
P. aeruginosa: The P. aeruginosa strain PA54 was employed to induce an experimental bacterial keratitis in the aforementioned C57BL/6N mice. The strain PA54 was isolated from human infections and collected at Saarland University Medical Center’s Institute for Medical Microbiology and Hygienics (IMMH) in 2009. […]

[2] = system: P. aeruginosa strain PA54 keratitis; assay: Murine Pseudomonas keratitis model; assay type: in vivo, mouse
Experimental: Based on our previous findings on target engagement in a murine pneumonia model in combination with a standard‐of‐care antibiotic,^[ [30] ^] we applied the dipeptide (R)‐30 alone and in combination with the commonly used antibiotic meropenem.^[ [9] ^] The keratitis model was carried out using aged female C57BL/6 mice, as previously published.^[ [37] ^] For infection, 5*10^7 colony forming units (CFUs) of PA54 were topically administered on denuded, mechanically harmed corneas. Treatments with meropenem, (R)‐30, or meropenem in combination with (R)‐30 were performed every 8 h for 72 h (first treatment at 6 h post infection). Each of the in total nine 5 µL‐doses contained 1 mg/mL (R)‐30 and/or 0.5 mg mL^−1 meropenem. Sham‐treated mice received 5 µL‐doses of the vehicle (0.9% saline and 1% DMSO) at the time points indicated above, and uninfected eyes received no treatment. […]
as §1, §2
P. aeruginosa: The P. aeruginosa strain PA54 was employed to induce an experimental bacterial keratitis in the aforementioned C57BL/6N mice. The strain PA54 was isolated from human infections and collected at Saarland University Medical Center’s Institute for Medical Microbiology and Hygienics (IMMH) in 2009. According to Magiorakos et al., PA54 can be classified as multidrug-resistant due to its lacking sensibility to the anti-pseudomonal cephalosporins ceftazidime and cefepime, the anti-pseudomonal fluoroquinolones ciprofloxacin and levofloxacin, the […] fosfomycin, and the aminoglycoside gentamicin.[18] The minimum inhibitory concentration (MIC) of the reserve antibiotic meropenem (meropenem trihydrate, Sigma) was 1 µg/mL (sensitivity limit = 2 µg/mL). The exoU- and exoT-positivity of the PA54 strain, foregrounds its keratitogenic potential.
Inoculum: The P. aeruginosa strain PA54 is routinely grown overnight on blood agar (TrypticaseTM Soy Agar, 5% sheep blood, BD, Heidelberg, Germany) at 37 °C. To obtain a stationary phase cell inoculum, a freshly grown colony was inoculated in tryptic soy broth (TSB; BD, Heidelberg, Germany) and cultured at 37 °C and 150 rounds per minute (rpm) for 16 h.
Then, 2 mL were centrifuged at 13,200 rpm at rt for 2 min, whereupon cells were resuspended in spent medium to an OD600 of 10 (∼1×1010 CFU/mL). Short storage on ice followed, before the infection procedure started.
Infection Procedure: Anesthesia and infection were performed as previously published. Briefly, fentanyl (Hameln Pharma Plus GmbH, Hameln, Germany), midazolam hydrochloride (Midazolam-Hameln, 5 mg/mL, Hameln pharma GmbH, Germany) and medetomidine hydrochloride (Domitor, Orion Corporation, Espoo, Finland) were dissolved in 0.9% NaCl (NaCl 0.9%, Ecotainer 500 mL, B. Braun, Melsungen, Germany), dosed at 0.05 mg/kg, 5 mg/kg and 0.5 mg/kg body weight, respectively, and applied by intraperitoneal injection. Analgesia (Carprofen, 5 mg/kg body weight, Zoetis Deutschland GmbH, Berlin, Germany) was ap plied subcutaneously. Lacrimation was stopped with 10 µL of a 0.6% acetylcysteine solution (Pharmacy of Saarland University Hospitals, Homburg, Germany). Local analgesia (0.5% proxymetacaine hydrochloride, Proparakain -POS Augentropfen, Ursapharm Arzneimitt el GmbH, Saarbrücken, Germany) was eye-dropped and removed after 60 seconds. The blunt […]

For `C[C@@H](O)[C@H]1C(=O)N2C(C(=O)O)=C(S[C@@H]3CN[C@H](C(=O)N(C)C)C3)[C@H](C)[C@H]12` [meropenem, reference compound], the MIC [1] was 1 µg/mL (≈ 2.61 µM), the “IL‐1β levels in eye homogenate” value ([2]; day 3 post infection, compared to sham treatment / uninfected eyes) was “almost on the level of this cytokine seen in uninfected eyes” and the “KC levels in eye homogenate” value ([2]; day 3 post infection, compared to uninfected eyes) was “significantly higher amounts of this chemokine”. For the same molecule, the “reduction of bacterial load in the eye (median)” value ([2]; day 3 post infection, whole-eye homogenates) was 64 fold and the “median clinical keratitis score” value ([2]; day three post infection, topical every 8 h for 72 h, 1 mg/mL (R)-30 and/or 0.5 mg/mL meropenem) was 3.
